Measured values taken from US20120083522A1, “MODULATION OF INFLAMMATORY RESPONSES BY FACTOR XI” (Isis Pharmaceuitcals, inc., priority 2009, published 2012).
In the oligonucleotide strings, read from the 5' end, every base follows the letter of its sugar. An asterisk marks phosphorothioate; unmarked linkages are phosphodiester. Other units and linkages are bracketed, terminal groups are in braces. A string of capitals states the bases alone. e = 2'-O-(2-methoxyethyl) (MOE); [5mC] = 5-methylcytosine; d = 2'-deoxy (DNA)

How the values were obtained:
Type in all cases: cell-based
human Factor XI mRNA [1] = assay: Dose-dependent antisense inhibition in HepG2 cells, lipofectin (Example 2); settings: approximately 16 hours
Method: Cells were plated at a density of 10,000 cells per well and transfected using lipofectin reagent with 9.375 nM, 18.75 nM, 37.5 nM, 75 nM, and 150 nM concentrations of antisense oligonucleotide, as specified in Table 3. After a treatment period of approximately 16 hours, RNA was isolated from the cells and Factor XI mRNA levels were measured by quantitative real-time PCR. Human Factor XI primer probe set RTS 2966 (forward sequence: […], incorporated herein as SEQ ID NO: 3; reverse sequence: […], incorporated herein as SEQ ID NO: 4; probe sequence: TTGTCTACTGAAGCACACCCAAACAGGGAX, wherein X is the fluorophore, incorporated herein as SEQ ID NO: 5) was used to measure mRNA levels. Factor XI mRNA levels were adjusted according to total RNA content, as measured by RIBOGREEN®. Results are presented as percent inhibition of Factor XI, relative to untreated control cells.

human Factor XI mRNA [2] = assay: Antisense inhibition in HepG2 cells by microwalk gapmers, 75 nM, lipofectin (Example 3); settings: HepG2 cells, 75 nM
In short: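 HepG2 cells (10,000 per well) were transfected with 75 nM gapmer using lipofectin and treated for about 24 h. Factor XI mRNA was quantified by real-time PCR, normalized to RiboGreen total RNA and expressed as percent inhibition versus untreated controls.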

human Factor XI mRNA [3] = assay: Dose-dependent inhibition in HepG2 cells, lipofectin (Example 4); settings: 16 hours
In short: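 HepG2 cells at 10,000 per well were lipofectin-transfected with 9.375, 18.75, 37.5 or 75 nM antisense oligonucleotide for about 16 h. Factor XI mRNA was quantified by real-time PCR (primer probe set RTS 2966) and normalised to RIBOGREEN total RNA. Values are percent inhibition versus untreated cells.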

human Factor XI mRNA [4] = assay: Dose-dependent inhibition in HepG2 cells, electroporation (Example 4); settings: 16 hours
In short: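 HepG2 cells electroporated with 0.7, 2.2, 6.7 or 20 μM antisense gapmer and harvested after ~16 h. Factor XI mRNA quantified by qRT-PCR (primer probe set RTS 2966), normalised to total RNA (RIBOGREEN). Reported as percent inhibition versus untreated control cells.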

human Factor XI mRNA [5] = assay: Antisense inhibition in HepG2 cells by microwalk gapmers, 8,000 nM, electroporation (Example 14); settings: HepG2 cells, 8,000 nM
Method: These microwalk gapmers were tested in vitro. Cultured HepG2 cells at a density of 20,000 cells per well were transfected using electroporation with 8,000 nM antisense oligonucleotide. After a treatment period of approximately 24 hours, RNA was isolated from the cells and Factor XI mRNA levels were measured by quantitative real-time PCR. Factor XI mRNA levels were adjusted according to total RNA content, as measured by RIBOGREEN. Results are presented as percent inhibition of Factor XI, relative to untreated control cells.
The chimeric antisense oligonucleotides in Table 51 were designed as 5-10-5 MOE, 5-8-5 and 6-8-6 MOE gapmers. The first two listed gapmers in Table 51 are the original gapmers (ISIS 416850 and ISIS 416858) from which ISIS 445493-445543 were designed via microwalk, and are designated by an asterisk. The 5-10-5 gapmers are 20 nucleotides in length, wherein the central gap segment is comprised of ten 2′-deoxynucleotides and is flanked on both sides (in the 5′ and 3′ directions) by wings comprising five nucleotides each. The 5-8-5 gapmers are 18 nucleotides in length, wherein the central gap segment is comprised of eight 2′-deoxynucleotides and is flanked on both sides (in the 5′ and 3′ directions) by wings comprising five nucleotides each. The 6-8-6 gapmers are 20 nucleotides in length, wherein the central gap segment is comprised of eight 2′-deoxynucleotides and is flanked on both sides (in the 5′ and 3′ directions) by wings comprising six nucleotides each. For each of the motifs (5-10-5, 5-8-5 and 6-8-6), each nucleotide in the 5′ wing segment and each nucleotide in the 3′ wing segment has a 2′-MOE modification. The internucleoside linkages throughout each gapmer are phosphorothioate (P═S) linkages. All cytidine residues throughout each gapmer are 5-methylcytidines. “Human Target start site” indicates the 5′-most nucleotide to which the gapmer is targeted in the human sequence. “Human Target stop site” indicates the 3′-most nucleotide to which the gapmer is targeted in the human sequence. Each gapmer listed in Table 51 is targeted to SEQ ID NO: 1 (GENBANK Accession No. NM_000128.3). Each gapmer is Table 51 is also fully cross-reactive with the rhesus monkey Factor XI gene sequence, designated herein as SEQ ID NO: 274 (exons 1-15 GENBANK Accession No. NW—001118167.1). ‘Rhesus monkey start site’ indicates the 5′-most nucleotide to which the gapmer is targeted in the rhesus monkey sequence. ‘Rhesus monkey stop site’ indicates the 3′-most nucleotide to which the gapmer is targeted to the rhesus monkey sequence.

human Factor XI mRNA [6] = assay: Dose-dependent inhibition and IC50 in HepG2 cells, electroporation (Example 15)
Method: Cells were plated at a density of 20,000 cells per well and transfected using electroporation with 123.46 nM, 370.37 nM, 1,111.11 nM, 3,333.33 nM and 10,000 nM concentrations of antisense oligonucleotide, as specified in Table 52. After a treatment period of approximately 16 hours, RNA was isolated from the cells and Factor XI mRNA levels were measured by quantitative real-time PCR. Human Factor XI primer probe set RTS 2966 was used to measure mRNA levels. Factor XI mRNA levels were adjusted according to total RNA content, as measured by RIBOGREEN. Results are presented as percent inhibition of Factor XI, relative to untreated control cells.

[7] = oligonucleotides targeted to nucleobases 1275 to 1318 of SEQ ID NO: 1

Substance	% inhibition of human Factor XI mRNA levels (human Factor XI mRNA [2]; [7]) [%]	Percent inhibition of human Factor XI mRNA levels (human Factor XI mRNA [5]) [%]	percent inhibition of Factor XI mRNA (human Factor XI mRNA [6]; electroporation, 123.47 nM) [%]	percent inhibition of Factor XI mRNA (human Factor XI mRNA [6]; electroporation, 370.37 nM) [%]	percent inhibition of Factor XI mRNA (human Factor XI mRNA [6]; electroporation, 1,111.11 nM) [%]	percent inhibition of Factor XI mRNA (human Factor XI mRNA [6]; electroporation, 3,333.33 nM) [%]	percent inhibition of Factor XI mRNA (human Factor XI mRNA [6]; electroporation, 10,000.0 nM) [%]	also measured
413476 (antisense eT*eT*eG*eA*eG*dA*dT*dT*d[5mC]*dT*dT*dT*dG*dG*dG*e[5mC]*e[5mC]*eA*eT*eT) [compound 413476]								percent inhibition of Factor XI (human Factor XI mRNA [1]; 9.375 nM): 26%; percent inhibition of Factor XI (human Factor XI mRNA [1]; 18.75 nM): 44%; percent inhibition of Factor XI (human Factor XI mRNA [1]; 37.5 nM): 64%; percent inhibition of Factor XI (human Factor XI mRNA [1]; 75 nM): 73%; percent inhibition of Factor XI (human Factor XI mRNA [1]; 150 nM): 82%; % inhibition of human Factor XI mRNA levels (human Factor XI mRNA [2]; oligonucleotides targeted to nucleobases 1062 to 1091 of SEQ ID NO: 1): 93%; percent inhibition of Factor XI mRNA, relative to untreated control cells (human Factor XI mRNA [3]; 9.375 nM): 24%; percent inhibition of Factor XI mRNA, relative to untreated control cells (human Factor XI mRNA [3]; 18.75 nM): 58%; percent inhibition of Factor XI mRNA, relative to untreated control cells (human Factor XI mRNA [3]; 37.5 nM): 62%; percent inhibition of Factor XI mRNA, relative to untreated control cells (human Factor XI mRNA [3]; 75 nM): 77%; percent inhibition of Factor XI mRNA, relative to untreated control cells (human Factor XI mRNA [4]; 0.7 μM): 40%; percent inhibition of Factor XI mRNA, relative to untreated control cells (human Factor XI mRNA [4]; 2.2 μM): 69%; percent inhibition of Factor XI mRNA, relative to untreated control cells (human Factor XI mRNA [4]; 6.7 μM): 88%; percent inhibition of Factor XI mRNA, relative to untreated control cells (human Factor XI mRNA [4]; 20 μM): 93%
416849 (antisense eG*e[5mC]*eA*e[5mC]*eA*dG*dT*dT*dT*d[5mC]*dT*dG*dG*d[5mC]*dA*eG*eG*e[5mC]*e[5mC]*eT) [compound 416849]	88	88	5	5	26	57	68	
416857 (antisense e[5mC]*eG*eG*e[5mC]*eA*dT*dT*dG*dG*dT*dG*d[5mC]*dA*d[5mC]*dA*eG*eT*eT*eT*e[5mC]) [compound 416857]	92	91	2	20	35	62	72	
445504 (antisense eG*eG*e[5mC]*eA*eT*eT*dG*dG*dT*dG*d[5mC]*dA*d[5mC]*dA*eG*eT*eT*eT*e[5mC]*eT) [compound 445504]		87	8	20	38	53	68	
445505 (antisense e[5mC]*eG*eG*e[5mC]*eA*eT*dT*dG*dG*dT*dG*d[5mC]*dA*d[5mC]*eA*eG*eT*eT*eT*e[5mC]) [compound 445505]		89	12	30	39	59	77	
445532 (antisense e[5mC]*eG*eG*e[5mC]*eA*dT*dT*dG*dG*dT*dG*d[5mC]*dA*e[5mC]*eA*eG*eT*eT) [compound 445532]		89	5	12	39	60	70	
